According to US12466821B2 (Novartis AG, priority 2018, dated 2025):

How the values were obtained:
[1] = target: human CMV DNA polymerase UL54 (Human cytomegalovirus (strain AD169) (HHV-5) (Human herpesvirus 5), UniProt P08546); assay: CMV polymerase biochemical assay (molecular beacon-based)
Outline: (§1)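 Full-length wild-type N-terminal MBP-fusion polymerases from sf9 cells were used at 100 pM (CMV) or 625 pM (HSV) in Tris pH 7.5, 10 mM MgCl2, and preincubated with inhibitor for 30 min at RT. Reactions with 1.25 uM each dNTP, 200 nM primer and 100 nM molecular beacon ran 60 min (CMV) or 20 min (HSV) at RT. Fluorescence was read at 480/535 nm and IC50 derived.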

[2] = target: human HSV DNA polymerase UL30 (Human herpesvirus 1 (strain 17) (HHV-1) (Human herpes simplex virus 1), UniProt P04293); assay: HSV polymerase biochemical assay (molecular beacon-based)
Outline: as §1

[3] = test system: Luciferase-encoding HCMV, AD169 strain; assay: CMV Luciferase assay (cellular herpesvirus replication); assay type: cell-based; settings: Human betaherpesvirus 5, AD169, read-out: CMV-Luc Cellular EC50
Outline: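 Reporter HCMV AD169 with luciferase driven by late pp28 promoter, so signal requires viral DNA replication; NN-NHDF fibroblasts in 2% FBS medium, compound (0.0159–50 or 0.00318–10 μM, 0.5% DMSO) added 1 h before infection at MOI 1. Luminescence read 72 hpi; EC50 from 4-parameter fit of control-normalized %.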

Row | Structure (SMILES) | IC50 [1] [µM] | IC50 [2] [µM] | EC50 [3] [µM]
1 | C[S@@+]([O-])C1(CN2CCn3c(ccc(C(=O)NCc4ccc(Cl)cc4)c3=O)C2=O)CC1 (single isomer, unassigned) [Example 67-2, N-(4-chlorobenzyl)-2-((1-(methylsulfinyl)cyclopropyl)methyl)-1,6-dioxo-2,3,4,6-tetrahydro-1H-pyrido[1,2-a]pyrazine-7-carboxamide] | 0.0358 | 1.12 | 0.478
2 | N#Cc1ccc(CNC(=O)c2ccc3n(c2=O)CCN(CC2(S(=O)(=O)CC4(C(F)(F)F)CC4)CC2)C3=O)cc1 [Example 104-2] | 0.0243 | 0.301 | 1.82
3 | CC(C)(C)[S+]([O-])C1(CN2CCn3c(ccc(C(=O)NCc4ccc(C#N)cc4)c3=O)C2=O)CC1 (stereo not drawn) [Example 106, 2-((1-(tert-Butylsulfinyl)cyclopropyl)methyl)-N-(4-cyanobenzyl)-1,6-dioxo-2,3,4,6-tetrahydro-1H-pyrido[1,2-a]pyrazine-7-carboxamide] | 0.0334 | 0.972 | 1.12
4 | N#Cc1ccc(CNC(=O)c2ccc3n(c2=O)CCN(CC2(S(=O)(=O)C4(C(F)(F)F)CC4)CC2)C3=O)cc1 [Example 97-1] | 0.005 | 0.122 | 0.222
5 | CS(=O)(=O)NC1(CN2CCn3c(ccc(C(=O)NCc4ccc(Cl)cc4)c3=O)C2=O)CC1 [Example 198] | 0.0372 | 1.5 | 1.68
6 | CC1(CS(=O)(=O)C2(CN3CCn4c(ccc(C(=O)NCc5ccc(C#N)cc5)c4=O)C3=O)CC2)COC1 [Example 103-2] | 0.0011 | 0.108 | 1.27
7 | CS(=O)(=O)N1CCC[C@H]1CN1CCn2c(ccc(C(=O)NCc3ccc(Cl)cc3)c2=O)C1=O [Example 63-1] | 1.4 | 23.4 | 42.7
8 | O=C(NCc1ccc(Cl)cc1)c1ccc2n(c1=O)CCN(CC1(N3CCOC3=O)CC1)C2=O [Example 89-1, N-(4-chlorobenzyl)-1,6-dioxo-2-((1-(2-oxooxazolidin-3-yl)cyclopropyl)methyl)-2,3,4,6-tetrahydro-1H-pyrido[1,2-a]pyrazine-7-carboxamide] | 0.0793 | 1.26 | 4.9
9 | Cc1cc(C(=O)NCc2ccc(Cl)cc2)c(=O)n2c1C(=O)N(CCN1CCCS1(=O)=O)CC2 [Example 66-1] | 0.0375 | 0.125 | 0.417
10 | N#Cc1ccc(CNC(=O)c2ccc3n(c2=O)CCN(CC2(S(=O)(=O)C4(F)CC4)CC2)C3=O)cc1F [Example 77-2] | 0.0019 | 0.0772 | 0.0577
11 | CS(=O)(=O)C1(CN2CCn3c(ccc(C(=O)NCC4CCC5(CC4)CC5)c3=O)C2=O)CC1 [Example 42] | 0.0432 | 12.8 | 7.49
12 | CC(C)S(=O)(=O)C1(CN2CCn3c(ccc(C(=O)NCc4ccc(Cl)cc4)c3=O)C2=O)CC1 [Example 31] | 0.0009 | 0.0306 | 0.0124
13 | N#Cc1ccc(CNC(=O)c2ccc3n(c2=O)CCN(CC2(S(=O)(=O)N4CC(F)(F)C4)CC2)C3=O)cc1F [Example 84-2] | 0.0028 | 0.0806 | 0.0548
14 | CS(=O)(=O)C1(CN2CCn3c(ccc(C(=O)NCc4ccc(C#N)cc4)c3=O)C2=O)CC1 [Example 46] | 0.006 | 0.127 | 0.229
15 | COCC1(CN2CCn3c(ccc(C(=O)NCc4ccc(Cl)cc4)c3=O)C2=O)CC1 [Example 69, N-(4-chlorobenzyl)-2-((1-(methoxymethyl)cyclopropyl)methyl)-1,6-dioxo-2,3,4,6-tetrahydro-1H-pyrido[1,2-a]pyrazine-7-carboxamide] | 0.656 | 5.25 | 10
16 | CC1(S(=O)(=O)C2(CN3CCn4c(ccc(C(=O)NCc5ccc(C#N)c(F)c5)c4=O)C3=O)CC2)CC1 [Example 94-2] | 0.0003 | 0.0253 | 0.0079
17 | CS(=O)(=O)C1(CN2CCn3c(ccc(C(=O)NCc4ccc(C#N)cc4F)c3=O)C2=O)CC1 [Example 38] | 0.012 | 0.63 | 0.868

Row | Structure (SMILES) | IC50 [1] [µM] | IC50 [2] [µM] | EC50 [3] [µM]
18 | CN(CCN1CCn2c(c(CCCO)cc(C(=O)NCc3ccc(Cl)cc3)c2=O)C1=O)S(C)(=O)=O [Example 157, N-(4-chlorobenzyl)-9-(3-hydroxypropyl)-2-(2-(N-methylmethylsulfonamido)ethyl)-1,6-dioxo-1,3,4,6-tetrahydro-2H-pyrido[1,2-a]pyrazine-7-carboxamide] | 0.223 | 1.8 | 7.72
19 | COc1cc(CNC(=O)c2ccc3n(c2=O)CCN(CC2(S(=O)(=O)C4CC4)CC2)C3=O)ccc1Cl [Example 3-5] | 0.002 | 0.117 | 0.211
20 | CN(CCN1CCn2c(c(CO)cc(C(=O)NCc3ccc(Cl)cc3)c2=O)C1=O)S(C)(=O)=O [Example 137, N-(4-chlorobenzyl)-9-(hydroxylmethyl)-2-(2-(N-methylmethylsulfonamido)ethyl)-1,6-dioxo-1,3,4,6-tetrahydro-2H-pyrido[1,2-a]pyrazine-7-carboxamide] | 0.348 | 3.9 | 19.7
21 | O=C(NCc1ccc(Cl)cc1)c1cc(CF)c2n(c1=O)CCN(CCN1CCCS1(=O)=O)C2=O [Example 141] | 0.0728 | 0.328 | 1.65
22 | N#Cc1ccc(CNC(=O)c2ccc3n(c2=O)CCN(CC2(S(=O)(=O)C4CC4(F)F)CC2)C3=O)cc1Cl (stereo not drawn) [Example 98-3] | 0.0017 | 0.2 | 0.102
23 | Cc1cc(C(=O)NCc2ccc(Cl)cc2)c(=O)n2c1C(=O)N(CCCS(C)(=O)=O)CC2 [Example 152] | 0.653 | 1.67 | 9.19
24 | N#Cc1ccc(CNC(=O)c2ccc3n(c2=O)CCN(CC2CCCS2(=O)=O)C3=O)cc1F (stereo not drawn) [Example 82, N-(4-cyano-3-fluorobenzyl)-2-((1,1-dioxidotetrahydrothiophen-2-yl)methyl)-1,6-dioxo-2,3,4,6-tetrahydro-1H-pyrido[1,2-a]pyrazine-7-carboxamide] | 1.09 | 20.9 | 10
25 | COCC(C)(C)S(=O)(=O)C1(CN2CCn3c(ccc(C(=O)NCc4ccc(C#N)cc4)c3=O)C2=O)CC1 [Example 187] | 0.0004 | 0.0529 | 0.0149
26 | CC(C)(CO)S(=O)(=O)C1(CN2CCn3c(ccc(C(=O)NCc4ccc(Cl)cc4)c3=O)C2=O)CC1 [Example 180, N-(4-chlorobenzyl)-2-((1-((1-hydroxy-2-methylpropan-2-yl)sulfonyl)cyclopropyl)methyl)-1,6-dioxo-1,3,4,6-tetrahydro-2H-pyrido[1,2-a]pyrazine-7-carboxamide] | 0.0002 | 0.0227 | 0.0062
27 | CNc1cc(CNC(=O)c2ccc3n(c2=O)CCN(CC2(S(=O)(=O)C4CC4)CC2)C3=O)ccc1C#N [Example 212, N-(4-cyano-3-(methylamino)benzyl)-2-((1-(cyclopropylsulfonyl)cyclopropyl)methyl)-1,6-dioxo-1,3,4,6-tetrahydro-2H-pyrido[1,2-a]pyrazine-7-carboxamide] | 0.0006 | 0.0514 | 0.315
28 | N#Cc1ccc(CNC(=O)c2ccc3n(c2=O)CCN(CC2(S(=O)(=O)C4CCOCC4)CC2)C3=O)cc1 [Example 105-2] | 0.0025 | 0.0643 | 0.178
29 | O=C(NCc1ccc(Cl)cc1)c1ccc2n(c1=O)CCN(CCC1CCCS1(=O)=O)C2=O (stereo not drawn) [Example 50-1, N-(4-chlorobenzyl)-2-(2-(1,1-dioxidotetrahydrothiophen-2-yl)ethyl)-1,6-dioxo-2,3,4,6-tetrahydro-1H-pyrido[1,2-a]pyrazine-7-carboxamide] | 0.0356 | 0.188 | 0.306
30 | CNC1(CN2CCn3c(ccc(C(=O)NCc4ccc(Cl)cc4)c3=O)C2=O)CC1 [Example 204, N-(4-chlorobenzyl)-2-((1-(methylamino)cyclopropyl)methyl)-1,6-dioxo-1,3,4,6-tetrahydro-2H-pyrido[1,2-a] pyrazine-7-carboxamide] | 0.156 | 5.47 | 4.04
31 | CN(C)S(=O)(=O)CCN1CCn2c(ccc(C(=O)NCc3ccc(Cl)cc3)c2=O)C1=O [Example 71, N-(4-chlorobenzyl)-2-(2-(N,N-dimethylsulfamoyl)ethyl)-1,6-dioxo-2,3,4,6-tetrahydro-1H-pyrido[1,2-a]pyrazine-7-carboxamide] | 0.347 | 2.78 | 3.05
32 | C[C@@H](CCO)S(=O)(=O)C1(CN2CCn3c(ccc(C(=O)NCc4ccc(Cl)cc4)c3=O)C2=O)CC1 (single isomer, unassigned) [Example 7, N-(4-chlorobenzyl)-2-((1-((4-hydroxybutan-2-yl)sulfonyl)cyclopropyl)methyl)-1,6-dioxo-2,3,4,6-tetrahydro-1H-pyrido[1,2-a]pyrazine-7-carboxamide] | 0.001 | 0.0356 | 0.0328
33 | N#Cc1ccc(CNC(=O)c2cc(F)c3n(c2=O)CCN(CC2(S(=O)(=O)C4CC4)CC2)C3=O)cc1 [Example 161] | 0.0015 | 0.0571 | 0.0599
34 | CCS(=O)(=O)NC1(CN2CCn3c(ccc(C(=O)NCc4ccc(Cl)cc4)c3=O)C2=O)CC1 [Example 199] | 0.0537 | 1.11 | 1.72
